In patent publication US20210008047A1, “TARGETING MINIMAL RESIDUAL DISEASE IN CANCER WITH RXR ANTAGONISTS” (VIB VZW, priority 2018, published 2021):

How the values were obtained:
[1] = test system: MM052 cells; test: Colony assay and Cell Titer Glo assay in short-term melanoma culture MM052; format: cell-based, human
Experimental: E) and Cell Titer Glo assay performed after 6 days after incubation of the short culture melanoma line MM052 with MEK inhibitor trametinib (TRA; 2 nM), RXRG agonist bexarotene (BEX; 1 uM), FAK inhibitor PF-562271 (1 uM) and RXRG antagonist HX531 (2 uM).
Cells were grown to near confluency on 12well plates and treated with the indicated drug combinations for the indicated time period. Cells were washed once with PBS, stained with crystal violet (1% crystal violet w/v, 35% methanol v/v) for 15 min, washed with PBS and destained in tap water.
2500 cells were plated onto a 96well plate and treated with the indicated drug combinations for the indicated time period. Cell Titer Glo assay was performed according to the manufacturer's instruction (Promega) and luminescence was measured on a VictorX3 (Perkin Elmer).

[2] = test system: MEL006 cells; test: FACS of GFRA2-positive (NDTC) cells in drug-exposed MEL006 cultures
Experimental: Cells from dissociated MEL006 tumors were grown in 5% CO2 at 37° C. in F10 (Gibco, Life Technologies) supplemented with 10% FBS (Gibco, Life Technologies) and 0.25% Glutamax (Gibco, Life Technologies).
Cells were incubated with GFRA2 antibody (AF429 R&D 3 μg/mL) for 45 minutes at room temperature, followed by anti-goat secondary antibody conjugated with Alexa Fluor® 594 (ThermoFisherScientific) for 30 min at room temperature. Cells were resuspended in FACS sorting buffer (culture medium supplied with 1% EDTA 100 mM).
To assess whether emergence of NDTCs upon MAPK inhibition is cancer cell intrinsic or depends on micro-environmental cues, we exposed 2D cultures of Me1006 to near IC25 concentrations of dabrafenib and trametinib for 10 days.

## CN1c2ccc([N+](=O)[O-])cc2N=C(c2ccc(C(=O)O)cc2)c2cc3c(cc21)C(C)(C)CCC3(C)C [HX531]
[1]; MM52, HX531 2 uM, trametinib 2 nM per FIG. 7 legend
  Sensitization of cells to trametinib: sensitized
[2]; in the presence of IC50 concentrations of the BRAF and MEK-inhibitors
  Drug-dependent induction of GFRA2-positive cells: completely inhibited

## CN(c1ncccc1CNc1nc(Nc2ccc3c(c2)CC(=O)N3)ncc1C(F)(F)F)S(C)(=O)=O [PF-562271]
[2]; FAK inhibitor together with DT, dose-dependent
  Drug-dependent emergence of the GFRA2-high cell population: diminished
[2]; MEL006 cells treated with DT and or FAK inhibitors, then FACS sorted for GFRA2
  Sensitivity of GFRA2high cells to FAK inhibitors: sensitive

## C=C(c1ccc(C(=O)O)cc1)c1cc2c(cc1C)C(C)(C)CCC2(C)C [bexarotene]
[1]; MM52
  Sensitivity of cells to a combination of trametinib/FAK-inhibitors: increased
[1]; MM52, bexarotene alone
  Long-term growth inhibition: did not induce measurable long-term growth inhibition
[1]; MM52, bexarotene at concentrations as low as 10 nM
  Sensitivity of cells to trametinib: significantly decreased
[1]; bexarotene with trametinib/FAK-inhibitors, after 3 days of treatment (data not shown)
  Cells in which cell death occurred: ~100%
